Key:
Assay in all cases: relative viability (nuclei count vs DMSO), 5 days (fraction); higher = more cells survive
Alisertib + Palbociclib = compound: COc1cc(Nc2ncc3c(n2)-c2ccc(Cl)cc2C(c2c(F)cccc2OC)=NC3)ccc1C(=O)O [Alisertib] + CC(=O)c1c(C)c2cnc(Nc3ccc(N4CCNCC4)cn3)nc2n(C2CCCC2)c1=O [Palbociclib] (partner 0.5 µM)
How it was run: (§1)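 Lung cancer cell lines in 1536-well plates were dosed by pin tool the day after seeding, either with one drug alone or with a fixed anchor-drug dose plus five library-drug doses (not always all listed) in √10 steps. After 5 days, cells were fixed and their nuclei stained in one step (final 0.05% Triton X-100, 1% formaldehyde, 1 ug/ml Hoechst), then counted on 4× images. Relative viability is the nuclei count in treated wells divided by that in vehicle wells. Values are medians of duplicate plates.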

Alisertib + Alpelisib = compound: COc1cc(Nc2ncc3c(n2)-c2ccc(Cl)cc2C(c2c(F)cccc2OC)=NC3)ccc1C(=O)O [Alisertib] + Cc1nc(NC(=O)N2CCC[C@H]2C(N)=O)sc1-c1ccnc(C(C)(C)C(F)(F)F)c1 [Alpelisib] (partner 2 µM)
How it was run: as §1

Alisertib + Pemetrexed = compound: COc1cc(Nc2ncc3c(n2)-c2ccc(Cl)cc2C(c2c(F)cccc2OC)=NC3)ccc1C(=O)O [Alisertib] + Nc1nc2[nH]cc(CCc3ccc(C(=O)N[C@@H](CCC(=O)O)C(=O)O)cc3)c2c(=O)[nH]1 [Pemetrexed] (partner 0.2 µM)
How it was run: as §1

Alisertib + Olaparib = compound: COc1cc(Nc2ncc3c(n2)-c2ccc(Cl)cc2C(c2c(F)cccc2OC)=NC3)ccc1C(=O)O [Alisertib] + O=C(c1cc(Cc2n[nH]c(=O)c3ccccc23)ccc1F)N1CCN(C(=O)C2CC2)CC1 [Olaparib] (partner 8 µM)
How it was run: as §1

Cell Line	relative viability (Alisertib + Palbociclib; first compound 0.005 µM)	relative viability (Alisertib + Palbociclib; first compound 0.01581 µM)	relative viability (Alisertib + Palbociclib; first compound 0.05 µM)	relative viability (Alisertib + Palbociclib; first compound 0.1581 µM)	relative viability (Alisertib + Palbociclib; first compound 0.5 µM)	relative viability (Alisertib + Alpelisib; first compound 0.005 µM)	relative viability (Alisertib + Alpelisib; first compound 0.01581 µM)	relative viability (Alisertib + Alpelisib; first compound 0.05 µM)	relative viability (Alisertib + Alpelisib; first compound 0.1581 µM)	relative viability (Alisertib + Alpelisib; first compound 0.5 µM)	relative viability (Alisertib + Pemetrexed; first compound 0.005 µM)	relative viability (Alisertib + Pemetrexed; first compound 0.01581 µM)	relative viability (Alisertib + Pemetrexed; first compound 0.05 µM)	relative viability (Alisertib + Pemetrexed; first compound 0.1581 µM)	relative viability (Alisertib + Pemetrexed; first compound 0.5 µM)	relative viability (Alisertib + Olaparib; first compound 0.005 µM)	relative viability (Alisertib + Olaparib; first compound 0.01581 µM)	relative viability (Alisertib + Olaparib; first compound 0.05 µM)	relative viability (Alisertib + Olaparib; first compound 0.1581 µM)	relative viability (Alisertib + Olaparib; first compound 0.5 µM)
LXF-289	0.571	0.527	0.267	0.204	0.181	0.909	0.592	0.215	0.133	0.0979	0.794	0.61	0.376	0.169	0.174	0.757	0.593	0.113	0.101	0.131
NCI-H23	0.476	0.442	0.319	0.205	0.203	0.819	0.462	0.228	0.173	0.157	0.489	0.346	0.271	0.213	0.212	0.287	0.167	0.146	0.141	0.155
NCI-H322M	0.473	0.475	0.477	0.413	0.417	0.64	0.794	0.857	0.476	0.303	0.588	0.628	0.561	0.4	0.427	0.77	0.686	0.565	0.459	0.488
NCI-H358	0.111	0.117	0.104	0.0711	0.0985	0.753	0.584	0.257	0.19	0.151	0.162	0.165	0.167	0.112	0.0889	0.529	0.284	0.117	0.111	0.12
NCI-H441	0.182	0.225	0.117	0.125	0.123	0.787	0.528	0.172	0.153	0.157	0.288	0.279	0.249	0.145	0.142	0.487	0.471	0.139	0.173	0.172
NCI-H460	0.143	0.13	0.123	0.0185	0.0401	0.456	0.451	0.149	0.0179	0.0099	0.0584	0.0653	0.0683	0.0474	0.0488	0.371	0.387	0.0754	0.0677	0.0562
NCI-H520	0.196	0.232	0.214	0.177	0.155	0.966	0.766	0.429	0.323	0.273	0.653	0.491	0.346	0.273	0.253	0.317	0.244	0.217	0.18	0.249
NCI-H647	0.282	0.332	0.161	0.0956	0.0773	1.05	0.691	0.341	0.148	0.0808	0.155	0.178	0.122	0.0903	0.0745	0.367	0.278	0.086	0.0609	0.0531
NCI-H650	0.326	0.327	0.191	0.159	0.163	1.15	0.947	0.513	0.237	0.205	0.739	0.825	0.35	0.262	0.2	0.366	0.299	0.171	0.164	0.154
NCI-H661	0.414	0.401	0.367	0.296	0.294	0.579	0.669	0.552	0.31	0.235	0.868	0.858	0.636	0.46	0.324	0.735	0.562	0.397	0.355	0.357
NCI-H838	0.189	0.291	0.177	0.154	0.132	0.904	0.993	0.484	0.315	0.224	0.222	0.233	0.198	0.2	0.17	0.673	0.552	0.324	0.169	0.152
NCI-H1355	0.362	0.393	0.37	0.291	0.142	0.767	0.783	0.296	0.197	0.154	0.904	0.875	0.65	0.27	0.197	0.575	0.476	0.191	0.152	0.159
NCI-H1395	0.603	0.6	0.597	0.44	0.388	0.968	1.23	0.994	0.558	0.362	0.725	0.766	0.574	0.413	0.353	0.438	0.424	0.442	0.37	0.361
NCI-H1437	0.241	0.289	0.217	0.172	0.144	0.91	0.836	0.425	0.213	0.112	0.28	0.261	0.235	0.231	0.166	0.585	0.47	0.383	0.257	0.179
NCI-H1651	0.476	0.486	0.333	0.21	0.189	0.867	0.87	0.533	0.289	0.187	0.509	0.495	0.339	0.199	0.173	0.166	0.157	0.12	0.112	0.126
NCI-H1666	0.609	0.585	0.595	0.551	0.489	1.05	0.721	0.455	0.268	0.224	0.829	0.844	0.791	0.672	0.537	0.739	0.739	0.706	0.629	0.511
